“And” between values parts separate entries of the source, which are not always exact repeats. Equal values may be shown once. The source made the active and inactive calls.

Broadly, the EC50 is the concentration at which the effect is half-maximal. For orientation: AC50 means the midpoint of the concentration-response curve, whichever way the signal moves.

Assay [1] has as its system Streptococcus sp. 'group A'. As to the kind of experiment: growth inhibition of control SK(-) GAS strain, dose response, counter-screen for streptokinase expression inhibitor project, luminescence, kanamycin, BacTiterGlo, confirmation (AID 1900). The assay is classed as functional, organism-based. (Counterscreens check selectivity or assay interference.)
The target of the next assay is T1, Streptokinase A (Streptococcus pyogenes serotype M1, UniProt P10520).
T1 sequence (P10520 whole entry): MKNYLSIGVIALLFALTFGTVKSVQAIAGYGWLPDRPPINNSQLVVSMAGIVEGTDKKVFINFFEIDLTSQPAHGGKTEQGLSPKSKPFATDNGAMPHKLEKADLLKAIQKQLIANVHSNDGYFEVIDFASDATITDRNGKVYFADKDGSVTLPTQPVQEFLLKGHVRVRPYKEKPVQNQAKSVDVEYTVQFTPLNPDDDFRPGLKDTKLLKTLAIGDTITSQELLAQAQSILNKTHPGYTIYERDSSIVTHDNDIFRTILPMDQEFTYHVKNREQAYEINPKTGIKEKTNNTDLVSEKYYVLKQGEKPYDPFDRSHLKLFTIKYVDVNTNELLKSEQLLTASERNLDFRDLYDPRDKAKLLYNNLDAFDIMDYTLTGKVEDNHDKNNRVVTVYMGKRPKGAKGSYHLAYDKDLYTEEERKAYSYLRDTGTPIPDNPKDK
Description: S. pyogenes streptokinase expression inhibitors, potency, dose response, plasminogen activation absorbance, OD405 (AID 1914).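 Further: secreted streptokinase activity via plasminogen activation per viability signal from cell pellet.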 The assay is classed as functional, Streptococcus pyogenes M1 GAS.

The next assay concerns Streptococcus. Description: Group A Streptococcus viability loss, dose response, counter-screen for streptokinase expression inhibitor project, luminescence, BacTiterGlo (AID 1915).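 Further: potency for reduction of bacterial viability or growth.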 The class given is functional, organism-based.
The nature of assay [2]: inhibitors of intracellular T. cruzi replication, confirmation, NIH3T3 host cells, beta-gal luminescence (AID 2044).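 Further: intracellular parasites grown in NIH/3T3 mouse fibroblasts as host cells; luminescent beta-galactosidase reporter signal from transgenic T. cruzi replicating inside host cells; inhibitors lower the luminescence signal.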 The class given is functional, cell-based.
Assay [3] can be described thus: cytotoxicity toward NIH3T3 fibroblasts, dose response, counter-screen, cell-based, ATP luminescence, mouse fibroblasts (AID 2010).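 Further: cells exposed to compound for about 90 hours before reading.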 The assay is classed as functional.
Another assay has as its system INS1. Description: beta cell apoptosis inhibitors, cytokine rescue, dose response, luminescence, retest (AID 449756).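 Further: cell death triggered by IL-1 beta plus TNF-alpha plus IFN-gamma mixture; protective hits raise ATP signal compared with cytokine alone wells.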 The class given is functional, cell-based. The settings on record: Rattus norvegicus.
The target of another assay is Cytochrome P450 2D6 (Homo sapiens, UniProt P10635).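 Further: CYP2D6 member of a cytochrome P450 panel assay.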
Chain of Cytochrome P450 2D6 (P10635 whole entry): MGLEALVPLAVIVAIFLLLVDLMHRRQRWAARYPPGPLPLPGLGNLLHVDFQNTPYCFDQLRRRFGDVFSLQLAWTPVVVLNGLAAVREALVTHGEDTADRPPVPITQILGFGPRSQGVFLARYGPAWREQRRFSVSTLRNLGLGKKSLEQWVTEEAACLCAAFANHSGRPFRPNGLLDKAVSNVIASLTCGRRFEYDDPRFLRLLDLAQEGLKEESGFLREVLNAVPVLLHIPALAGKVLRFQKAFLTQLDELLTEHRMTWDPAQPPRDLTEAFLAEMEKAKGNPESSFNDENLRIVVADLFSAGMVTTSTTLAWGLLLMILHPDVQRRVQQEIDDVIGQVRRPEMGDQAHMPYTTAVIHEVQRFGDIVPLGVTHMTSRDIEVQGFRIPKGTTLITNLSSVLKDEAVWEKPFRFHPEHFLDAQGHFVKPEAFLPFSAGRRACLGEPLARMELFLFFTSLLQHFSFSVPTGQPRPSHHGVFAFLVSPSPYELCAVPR
For another assay, the target named is T2, Cytochrome P450 1A2 (Homo sapiens, UniProt P05177).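 Further: PubChem cytochrome P450 panel assay, CYP1A2 panel member.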
T2 sequence (P05177 whole entry): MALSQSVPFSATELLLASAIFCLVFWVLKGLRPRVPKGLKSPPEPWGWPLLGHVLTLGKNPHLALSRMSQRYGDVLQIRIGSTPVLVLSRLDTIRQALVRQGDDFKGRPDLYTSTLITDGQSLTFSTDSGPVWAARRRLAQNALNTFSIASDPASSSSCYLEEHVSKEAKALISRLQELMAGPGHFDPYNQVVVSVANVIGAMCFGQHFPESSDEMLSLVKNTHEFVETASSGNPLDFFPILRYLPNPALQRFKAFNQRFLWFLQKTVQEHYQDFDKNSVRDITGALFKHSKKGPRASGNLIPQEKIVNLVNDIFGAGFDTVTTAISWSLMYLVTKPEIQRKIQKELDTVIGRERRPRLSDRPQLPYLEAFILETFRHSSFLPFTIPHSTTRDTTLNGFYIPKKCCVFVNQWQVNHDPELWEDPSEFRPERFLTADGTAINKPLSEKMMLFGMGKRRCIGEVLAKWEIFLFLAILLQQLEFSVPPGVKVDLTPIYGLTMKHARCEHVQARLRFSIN

For a further assay, the target named is Cytochrome P450 2C19 (Homo sapiens, UniProt P33261). As to the kind of experiment: Cytochrome panel assay with activity outcomes. Panel member name: p450-cyp2c19 Compounds with AC50 equal or less than 10 uM are considered active. The assay is classed as functional. Conditions: read-out: AC50.
Chain of Cytochrome P450 2C19 (P33261 whole entry): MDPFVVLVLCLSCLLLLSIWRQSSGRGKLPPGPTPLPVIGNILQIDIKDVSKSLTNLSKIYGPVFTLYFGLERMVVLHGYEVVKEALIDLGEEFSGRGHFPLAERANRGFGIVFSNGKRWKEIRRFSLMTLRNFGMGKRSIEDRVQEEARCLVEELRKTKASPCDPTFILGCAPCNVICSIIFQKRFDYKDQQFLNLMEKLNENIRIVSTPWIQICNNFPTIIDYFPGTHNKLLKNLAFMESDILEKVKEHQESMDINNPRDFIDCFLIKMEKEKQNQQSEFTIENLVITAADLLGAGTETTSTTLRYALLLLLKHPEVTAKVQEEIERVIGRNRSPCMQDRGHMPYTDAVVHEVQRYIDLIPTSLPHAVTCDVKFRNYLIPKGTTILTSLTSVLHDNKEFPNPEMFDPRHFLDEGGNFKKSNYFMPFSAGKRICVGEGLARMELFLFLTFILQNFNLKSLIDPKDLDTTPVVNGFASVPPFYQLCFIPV
Assay [4] deals with Luciferin 4-monooxygenase (Photinus pyralis, UniProt P08659). Description: firefly luciferase enzyme inhibitors, dose response, biochemical, luminescence (AID 1891).
Chain of Luciferin 4-monooxygenase (P08659 whole entry): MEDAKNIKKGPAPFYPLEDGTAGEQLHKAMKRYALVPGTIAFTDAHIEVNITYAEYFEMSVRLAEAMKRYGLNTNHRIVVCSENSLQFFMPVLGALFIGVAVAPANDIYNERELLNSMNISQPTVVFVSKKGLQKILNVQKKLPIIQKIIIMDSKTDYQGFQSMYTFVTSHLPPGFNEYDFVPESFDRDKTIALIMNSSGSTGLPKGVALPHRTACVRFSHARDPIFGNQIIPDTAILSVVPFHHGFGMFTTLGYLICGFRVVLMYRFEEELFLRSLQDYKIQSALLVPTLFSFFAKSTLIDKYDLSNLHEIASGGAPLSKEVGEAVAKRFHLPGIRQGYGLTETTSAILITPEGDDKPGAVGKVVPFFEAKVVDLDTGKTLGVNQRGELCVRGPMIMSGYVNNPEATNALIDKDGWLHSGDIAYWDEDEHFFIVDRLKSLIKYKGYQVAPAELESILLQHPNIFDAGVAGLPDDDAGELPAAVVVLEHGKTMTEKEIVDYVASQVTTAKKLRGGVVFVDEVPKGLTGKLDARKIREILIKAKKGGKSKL
Assay [5] can be described thus: Luminescence Cell-Based Dose Confirmation HTS to Identify Inhibitors of Platelet Dense Granule Release. [Related pubchem assays: 1663 (Primary HTS), 1678 (Summary of Project)]. The class given is functional.
The next assay has as its target Cytochrome P450 3A4 (Homo sapiens, UniProt P08684).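 Further: CYP3A4 tested as one member of a cytochrome P450 panel screen.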
Assay [6] is described as follows: Luminescence Cell-Based Dose Retest to Confirm Inhibitors of Cancer Stem Cells. [Related pubchem assays (depositor defined):AID2717, AID2721]. The class given is functional. Conditions: Homo sapiens.
Assay [7] is described as follows: growth suppression of PTEN-null colon cells, dose response, cell-based, HCT116 PTEN knockout (AID 1047).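 Further: HCT116 colon tumor cells with PTEN knocked out; cells exposed to compound for 60 hours before readout; potency for loss of cell viability measured by luminescence.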 The class given is functional.
Assay [8] in a line: growth suppression of beta-catenin-knockout colon cells, dose response, cell-based, HCT116, human colon tumor (AID 1045).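 Further: HCT116 colon tumor cells with beta catenin knocked out; cells exposed to compound for 60 hours.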 The assay is classed as functional.

Chain of Cytochrome P450 3A4 (P08684 whole entry): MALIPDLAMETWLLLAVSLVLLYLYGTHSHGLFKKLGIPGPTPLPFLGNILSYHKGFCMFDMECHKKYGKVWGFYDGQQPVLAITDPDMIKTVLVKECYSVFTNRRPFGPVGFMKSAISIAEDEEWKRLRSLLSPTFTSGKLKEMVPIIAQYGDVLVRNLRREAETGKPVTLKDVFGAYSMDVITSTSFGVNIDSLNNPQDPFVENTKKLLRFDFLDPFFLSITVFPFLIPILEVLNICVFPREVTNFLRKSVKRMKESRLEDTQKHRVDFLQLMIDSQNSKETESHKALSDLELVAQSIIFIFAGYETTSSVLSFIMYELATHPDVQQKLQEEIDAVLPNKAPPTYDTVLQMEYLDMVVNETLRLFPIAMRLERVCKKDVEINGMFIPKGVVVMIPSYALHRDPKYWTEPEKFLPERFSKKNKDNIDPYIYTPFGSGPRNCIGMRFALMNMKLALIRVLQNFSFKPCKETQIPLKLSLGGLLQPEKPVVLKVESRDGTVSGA

Turning to `CC1(C)CC(=O)C2=C(C1)N=C1c3ccccc3C(=O)C1C2c1ccc(Cl)cc1` (stereo unspecified), the figures for the EC50 (in assay [1]; at Streptokinase A; in the assay on Streptococcus) were 6.07 µM (active), 14.8 µM (active) and > 150 µM (not active), respectively.
Regarding `C=CCn1cc(/C=C/c2cc[n+](C)cc2)c2ccccc21`, the concentration for a half-maximal effect (EC50) was 0.323 µM (active) in assay [2] and > 60 µM (not active) in [3]. For the same compound, the AC50 in the assay with INS1 was 4.75 µM (active).
In the case of `COc1ncc2nc(-c3cccc(C#N)c3)c(=O)n(CCC#N)c2n1`, the values for the half-maximal activity concentration (AC50) on Cytochrome P450 2D6 and on Cytochrome P450 1A2 were 15.8 µM (inconclusive) and 20 µM (inconclusive), respectively.
For the compound `C/C(=N\O)c1cccc[n+]1Cc1ccccc1`, the half-maximal activity concentration (AC50) is 0.1 µM (inconclusive) on Cytochrome P450 2C19 and 3.98 µM (inconclusive) on Cytochrome P450 2D6.
Turning to `CC(Oc1cccc(Cl)c1)C(=O)Nc1ccccc1N1CCCC1` (stereo unspecified), the EC50 in assay [4] and in [5] was > 112 µM (not active) throughout.
As to `CN1CCN(c2ncncc2-c2cccnc2)CC1`, the values for the AC50 on Cytochrome P450 2D6, on Cytochrome P450 1A2 and at Cytochrome P450 3A4 were 2.51 µM (inconclusive), 25.1 µM (inconclusive) and 12.6 µM (inconclusive), respectively.
For the compound `O=[N+]([O-])c1ccc(S(=O)(=O)Cc2ccccc2)c2nonc12`, the AC50 at Cytochrome P450 2D6 is 6.31 µM (inconclusive).
Turning to `Cc1noc(C)c1S(=O)(=O)N(CCc1ccccc1)Cc1ccccc1`, the EC50 in assay [1] is 68.6 µM (active); on Streptokinase A it was 21.7 µM (active); in the assay on Streptococcus, > 150 µM (not active).
Consider `CN1CCN(CC(=O)N2c3ccccc3Sc3cc4ccccc4cc32)CC1`, for which the half-maximal activity concentration (AC50) on Cytochrome P450 2D6 is 3.16 µM (inconclusive); on Cytochrome P450 3A4 it was 3.98 µM (inconclusive).
Take `COc1ccc(NC(=O)c2cccc(OC(F)F)c2)cc1Cl`: the EC50 is 17.3 µM (active) in assay [4] and 18.2 µM (active) in [5].
Turning to `COCCNc1ncnc2ccc(-c3cccc(OC)c3)cc12`, the half-maximal activity concentration (AC50) on Cytochrome P450 2C19 was 2.51 µM (inconclusive); on Cytochrome P450 2D6 it was 39.8 µM (inconclusive).
Turning to `CC(C)OCCCN1CN(S(=O)(=O)c2cccs2)c2nc3ccccc3nc21`, the concentration giving a half-maximal response (EC50) in assay [4] and in assay [5] was > 112 µM (not active) throughout.
Consider `CCCCCCSc1ccc([C@H]2N[C@@](C)(C(=O)OC)[C@H]3C(=O)N(CC)C(=O)[C@@H]23)cc1`, for which the concentration at half-maximal activity (AC50) in assay [6] is 33.7 µM (active).
Turning to `CCCc1cc2c(-c3ccccc3)cc(=O)oc2cc1OCc1ccc(C(=O)O)o1`, the EC50 in assay [1] was 8.37 µM (active); on Streptokinase A, 13.8 µM (active); with Streptococcus, > 150 µM (not active).
`CN(C)c1nc(OCCNC(=O)Nc2ccc(Cl)cc2)nc(N(C)C)n1`: the values for the EC50 in assay [4] and in assay [5] were 21.3 µM (active) and > 112 µM (not active), respectively.
Take `C[C@@H]1CC[C@H]2C(=O)N3[C@@H](CC[C@@H](C)[C@@H]3c3ccc(Br)cc3)C(=O)N2[C@H]1c1ccc(Br)cc1`: in [6], the AC50 was 3.04 µM (active).
For `COC(=O)C1(Cc2ccccc2)C=C2C(=C(C)C(=O)C2C)CN1` (stereo unspecified), the AC50 at Cytochrome P450 2C19 was 39.8 µM (inconclusive); at Cytochrome P450 2D6, 15.8 µM (inconclusive); on Cytochrome P450 1A2 it was 10 µM (inconclusive); at Cytochrome P450 3A4, 15.8 µM (inconclusive).
Consider `COc1ccc2[nH]cc(CCNc3nc(-c4ccccc4CN(C)C)nc4ccccc34)c2c1`, for which the figures for the half-maximal activity concentration (AC50) on Cytochrome P450 2D6, on Cytochrome P450 1A2 and at Cytochrome P450 3A4 were 31.6 µM (inconclusive), 25.1 µM (inconclusive) and 2 µM (inconclusive), respectively.
As to `Cc1ccccc1SCC(=O)OCC(=O)N(C)c1c(N)n(Cc2ccccc2)c(=O)[nH]c1=O`, the concentration giving a half-maximal response (EC50) in assay [4] and in assay [5] was > 112 µM (not active) each time.
As for `O=C1/C(=C/c2ccncc2)Oc2cc(OS(=O)(=O)c3ccccc3)ccc21`, in [6], the half-maximal activity concentration (AC50) was 3.32 µM (active).
Take `CC(C)C(=O)N1CCN(c2ccccc2NC(=O)c2cccc(Cl)c2)CC1`: the half-maximal activity concentration (AC50) was 15.8 µM (inconclusive) on Cytochrome P450 2D6, 20 µM (inconclusive) at Cytochrome P450 1A2 and 12.6 µM (inconclusive) at Cytochrome P450 3A4.
Take `CC(C)NC(=O)N1CC2(CCN(C(=O)c3ccco3)CC2)C1`: on Cytochrome P450 2D6, the AC50 is 12.6 µM (inconclusive).
Same read-out and setting: under `COc1cccc(-c2ccc3ncnc(NCCNC(C)=O)c3c2)c1` stands 39.8 µM (inconclusive).
`Cc1ccc(Nc2cc(C)nn2-c2nc(C)cc(C)n2)cc1`: the half-maximal effective concentration (EC50) in assay [1] is 6.89 µM (active); on Streptokinase A, > 150 µM (not active); in the assay with Streptococcus, 18.2 µM (active).
For `CC(C)N1CCN(Cc2ccc(OC3CCCC3)cc2)CC1CCO` (stereo unspecified), the AC50 in assay [6] is 3.58 µM (active).
Regarding `O=C(CSC1CC(=O)N(CC(c2ccccc2)c2ccccc2)C1=O)Nc1ccc(Cl)cc1` (stereo unspecified), the AC50 is 2 µM (inconclusive) on Cytochrome P450 2D6 and 35.5 µM (inconclusive) at Cytochrome P450 1A2.
Turning to `O=c1c2sc3nc(N4CCOCC4)c4c(c3c2ncn1-c1ccccc1)CCCC4`, the half-maximal effective concentration (EC50) in [4] and in assay [5] was > 112 µM (not active) throughout.
In the case of `Cc1cccc(NC(=O)c2[nH]cnc2C(=O)NC2CCN(C(=O)OC(C)(C)C)CC2)c1`, the AC50 in assay [6] was 5.39 µM (active).
As to `O=C(NCc1nnc(SCC(=O)N2CCOCC2)o1)c1c(F)cccc1F`, the EC50 (in assay [1]; at Streptokinase A; in the assay with Streptococcus) was > 150 µM (not active) in each case.
On to `Cc1nc2sccn2c(=O)c1S(=O)(=O)NCC(C)c1ccccc1` (stereo unspecified), for which the EC50 in assay [4] and in assay [5] was > 112 µM (not active) throughout.
Turning to `Cc1ccc(C)n1-c1ccc(C(=O)Nc2ccccc2)cc1`, the AC50 in the assay on INS1 is > 260 µM (inactive).
In the case of `O=C(CSc1ccccc1)Nc1nc2ccccc2[nH]1`, the EC50 in assay [4] and in assay [5] was > 112 µM (not active) each time.
As to `Cc1cccc(NC(=O)CSc2nc(O)c3c(C)cc(C)nc3n2)c1`, the AC50 at Cytochrome P450 2D6 is 15.8 µM (inconclusive).
On to `Nc1c(C(=O)OCc2ccccc2)c2nc3ccccc3nc2n1Cc1cccs1`, for which the values for the EC50 (in assay [1]; on Streptokinase A; in the assay with Streptococcus) were 10.9 µM (active), 18.5 µM (active) and 11.8 µM (active), respectively.
As for `Cn1c2ccccc2c(=O)c2c(=O)n(C3CCCCC3)c(-c3cccs3)nc21`, the half-maximal effective concentration (EC50) in [1] was 10.6 µM (active); at Streptokinase A it was > 150 µM (not active); in assay [7], 7.92 µM (active); in assay [8] it was 8.9 µM (active); in the assay on Streptococcus it was 39.2 µM (active).
On to `CCOC(=O)Nc1ccc(Cc2ccncc2)cc1`, for which the concentration at half-maximal activity (AC50) in assay [6] was 25.3 µM (active).
Still for that read-out and setting: under `COc1ccc(NC(=O)c2ccc(COc3ccccc3Br)o2)c(OC)c1` stands 2.2 µM (active).
On to `Cc1ccc(NC(=O)C(C)Sc2nnc(C)n2C2CC2)cc1S(=O)(=O)N1CCOCC1` (stereo unspecified), for which the concentration at half-maximal activity (AC50) in the assay on INS1 was > 260 µM (inconclusive).
The same measure, in the same setting: the same measure for `CN(C)C=O.O=C(c1cc(-c2ccccc2Cl)nc2ccccc12)N1CCN(c2ccccn2)CC1`: 3.9 µM (active).
Regarding `CCN(CC)c1nc(Nc2ccc([N+](=O)[O-])cc2)nc(N(CC)CC)n1`, the results for the EC50 (in assay [1]; on Streptokinase A; with Streptococcus) were 6.64 µM (active), > 150 µM (not active) and 15.7 µM (active), respectively.
Consider `COc1ccc(S(=O)(=O)N/N=C(/C)c2cccc(NC(=O)c3ccccc3Cl)c2)cc1`, for which the AC50 was 0.398 µM (inconclusive) on Cytochrome P450 2C19, 28.2 µM (inconclusive) on Cytochrome P450 2D6 and 14.1 µM (inconclusive) at Cytochrome P450 1A2.
With `CCN(CC)CCNC(=O)c1cc(S(C)(=O)=O)ccc1OC` [TIAPRIDE], the half-maximal activity concentration (AC50) on Cytochrome P450 2D6 was 7.94 µM (inconclusive) and 31.6 µM (inconclusive).
